This is an account of results in US11149019B2, “Phenylpyridine derivative and pharmaceutical composition comprising the same” (Daewoong Pharmaceutical Co., Ltd., priority 2017, dated 2021).

In one experiment the target is T1, BTK (Homo sapiens, UniProt Q06187).
T1 construct: purchased Promega Corporation
In words: ADP-Glo + BTK Kinase enzyme system kit, inhibitory activity against BTK. The experiment is classed as biochemical. The settings on record: BTK enzyme 1 ng/ul, ATP 10 μM, 30° C. for 1 hour, luminescence, duplicate. In a few lines: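 BTK enzyme (final 1 ng/ul) preincubated 15 min at room temperature with compound (1000 to 0.03 nM for IC50), then substrate and ATP (final 10 μM) added for 1 hour at 30° C. ADP formed detected by ADP-Glo luminescence; duplicates, IC50 calculated against no-compound and no-enzyme controls.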
On the technique in general: ADP-Glo first removes unused ATP, then detects ADP through luciferase.

The next experiment deals with T2, ITK (Homo sapiens, UniProt Q08881).
T2 construct: purchased Promega Corporation
T2 sequence (Q08881 1-620): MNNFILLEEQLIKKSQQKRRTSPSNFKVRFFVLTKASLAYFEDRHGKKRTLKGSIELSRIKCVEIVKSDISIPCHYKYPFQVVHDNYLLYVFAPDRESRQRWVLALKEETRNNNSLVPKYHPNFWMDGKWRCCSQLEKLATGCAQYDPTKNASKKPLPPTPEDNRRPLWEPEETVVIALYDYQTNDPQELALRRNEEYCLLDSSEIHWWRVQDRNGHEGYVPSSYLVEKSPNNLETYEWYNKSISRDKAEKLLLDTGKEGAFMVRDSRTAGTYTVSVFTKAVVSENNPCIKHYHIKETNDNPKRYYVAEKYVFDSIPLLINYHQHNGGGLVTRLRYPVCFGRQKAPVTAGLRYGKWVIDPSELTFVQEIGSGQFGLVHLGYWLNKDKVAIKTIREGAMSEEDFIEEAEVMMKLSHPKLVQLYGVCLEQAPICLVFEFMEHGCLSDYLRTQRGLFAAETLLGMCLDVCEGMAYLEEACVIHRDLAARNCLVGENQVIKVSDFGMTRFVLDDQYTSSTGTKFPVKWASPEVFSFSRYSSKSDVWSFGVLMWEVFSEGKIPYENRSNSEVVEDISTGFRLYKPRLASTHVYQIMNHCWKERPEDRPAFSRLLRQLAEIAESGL
Description: ADP-Glo + ITK Kinase enzyme system kit, inhibitory activity against ITK. It is filed as biochemical. The settings on record: ITK enzyme 0.4 ng/ul, ATP final concentration of 25 ul, 30° C. for 1 hour, luminescence, duplicate. In a few lines: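 ITK enzyme (final 0.4 ng/ul) preincubated 15 min at room temperature with compound, either singly at 1 uM or at 1000–0.03 nM for IC50. Substrate and ATP then added, 1 h at 30° C; ADP-Glo luminescence read, in duplicate, with no-compound controls with and without enzyme.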

Molecules are shown by their SMILES.

T1 sequence (Q06187 whole entry): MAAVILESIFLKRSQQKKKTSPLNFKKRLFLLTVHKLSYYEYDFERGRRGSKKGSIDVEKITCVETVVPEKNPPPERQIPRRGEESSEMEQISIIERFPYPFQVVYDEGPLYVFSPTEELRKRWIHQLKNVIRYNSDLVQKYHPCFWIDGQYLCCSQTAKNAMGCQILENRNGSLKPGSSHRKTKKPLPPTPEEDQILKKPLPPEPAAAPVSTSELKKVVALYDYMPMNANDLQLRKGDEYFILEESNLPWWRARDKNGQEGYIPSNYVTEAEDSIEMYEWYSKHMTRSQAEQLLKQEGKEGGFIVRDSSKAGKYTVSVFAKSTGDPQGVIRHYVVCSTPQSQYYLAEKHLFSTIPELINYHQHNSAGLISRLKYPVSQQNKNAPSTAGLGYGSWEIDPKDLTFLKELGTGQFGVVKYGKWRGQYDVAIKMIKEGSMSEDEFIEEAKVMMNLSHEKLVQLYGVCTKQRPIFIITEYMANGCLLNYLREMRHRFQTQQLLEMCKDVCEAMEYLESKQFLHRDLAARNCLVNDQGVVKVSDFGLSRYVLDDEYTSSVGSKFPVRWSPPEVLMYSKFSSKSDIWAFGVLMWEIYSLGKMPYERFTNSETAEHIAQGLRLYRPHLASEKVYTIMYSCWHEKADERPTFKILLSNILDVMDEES

In general, IC50 refers to the midpoint of a concentration-inhibition curve. Take `C=CC(=O)Nc1cccc(-c2cc(N(C)C)cc(Nc3ncc(C)s3)n2)c1` [Compound 35, N-(3-(4-(dimethylamino)-6-((5-methylthiazol-2-yl)amino)pyridin-2-yl)phenyl)acrylamide]: the IC50 on BTK is greater than 0.4 µM; on ITK, greater than 1 µM.

On to `C=CC(=O)Nc1cccc(-c2cc(C(=O)N(C)C)cc(Nc3cc(C)[nH]n3)n2)c1` [Compound 21, 2-(3-acrylamidophenyl)-N,N-dimethyl-6-((5-methyl-1H-pyrazol-3-yl)amino)isonicotinamide], for which the IC50 on BTK was 0.0526 µM; on ITK it was greater than 0.5 µM.

For `C=CC(=O)Nc1cccc(-c2cc(Cc3ccccc3)cc(Nc3cc(Cc4ccc(C)cc4)[nH]n3)n2)c1` [Compound 8], the results for the IC50 at BTK and on ITK were 0.308 µM and 0.572 µM, respectively.

Turning to `C=CC(=O)Nc1cccc(-c2cc(CN3CCN(C(=O)CC)CC3)cc(Nc3ncc(C)s3)n2)c1` [Compound 61, N (3(6(5methylthiazol-2-ylamino)-4-((4-propionylpiperazin-1-yl)methyl)pyridin-2-yl)phenyl)acrylamide], the IC50 on BTK worked out at 0.0095 µM; on ITK it was 0.0135 µM.

As to `C=CC(=O)Nc1cccc(-c2cccc(Nc3cc(C)[nH]n3)n2)c1` [Compound 12], the IC50 was 0.0078 µM on BTK and 0.995 µM at ITK.

`C=CC(=O)Nc1cc(F)cc(-c2cc(CN3CCOCC3)cc(Nc3ncc(C)s3)n2)c1` [Compound 57, N-(3-fluoro-5-(6-((5-methylthiazol-2-yl)amino)-4-(morpholinomethyl)pyridin-2-yl)phenyl)acrylamide]: the results for the IC50 on BTK and at ITK were greater than 0.0063 µM and 0.0232 µM, respectively.

Take `C=CC(=O)Nc1cccc(-c2cc(C(=O)N3CCOCC3)cc(Nc3cc(C4CC4)[nH]n3)n2)c1` [Compound 28, N-(3-(6-(5-cyclopropyl-1H-pyrazol-3-ylamino)-4-(morpholine-4-carbonyl)pyridin-2-yl)phenyl)acrylamide]: the IC50 came out at 0.31 µM at BTK and 0.0681 µM on ITK.
